Results as given in patent publication US20050095240A1, “NaCT as a target for lifespan expansion and weight reduction” (Medical College of Georgia Research, priority 2002, published 2005).
Like-named read-outs stand apart in the source and are kept apart here.

Experiments:
drIndy = drIndy (Drosophila melanogaster, UniProt Q9VVT2)
ceNaCT = target: T1, ceNaCT (Caenorhabditis elegans, UniProt P32739, I91S/L182M); test: Uptake via ceNaCT expressed in HRPE cells
T1 sequence (P32739 1-551 I91S/L182M): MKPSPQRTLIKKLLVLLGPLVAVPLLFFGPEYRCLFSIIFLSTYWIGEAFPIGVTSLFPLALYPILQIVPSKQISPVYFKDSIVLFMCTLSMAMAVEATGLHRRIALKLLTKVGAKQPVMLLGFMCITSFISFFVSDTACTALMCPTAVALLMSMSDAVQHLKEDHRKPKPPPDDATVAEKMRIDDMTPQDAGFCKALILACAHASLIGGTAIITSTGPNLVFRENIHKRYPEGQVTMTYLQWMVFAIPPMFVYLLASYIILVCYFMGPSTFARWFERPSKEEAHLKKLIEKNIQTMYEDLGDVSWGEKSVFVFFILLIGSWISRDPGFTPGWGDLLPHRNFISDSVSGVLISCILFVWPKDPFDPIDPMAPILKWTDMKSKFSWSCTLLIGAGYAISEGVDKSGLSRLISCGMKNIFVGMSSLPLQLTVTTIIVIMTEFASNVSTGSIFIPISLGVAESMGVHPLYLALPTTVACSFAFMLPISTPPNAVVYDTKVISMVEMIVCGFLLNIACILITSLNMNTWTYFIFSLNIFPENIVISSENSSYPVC

human NaCT = human NaCT (Homo sapiens, UniProt Q86YT5); test: Uptake via human NaCT expressed in HRPE cells; type: cell-based; details: for Citrate Uptake, cDNA / Citrate Uptake, cDNA-specific: pH 7.5
Sequence of human NaCT (Q86YT5 whole entry): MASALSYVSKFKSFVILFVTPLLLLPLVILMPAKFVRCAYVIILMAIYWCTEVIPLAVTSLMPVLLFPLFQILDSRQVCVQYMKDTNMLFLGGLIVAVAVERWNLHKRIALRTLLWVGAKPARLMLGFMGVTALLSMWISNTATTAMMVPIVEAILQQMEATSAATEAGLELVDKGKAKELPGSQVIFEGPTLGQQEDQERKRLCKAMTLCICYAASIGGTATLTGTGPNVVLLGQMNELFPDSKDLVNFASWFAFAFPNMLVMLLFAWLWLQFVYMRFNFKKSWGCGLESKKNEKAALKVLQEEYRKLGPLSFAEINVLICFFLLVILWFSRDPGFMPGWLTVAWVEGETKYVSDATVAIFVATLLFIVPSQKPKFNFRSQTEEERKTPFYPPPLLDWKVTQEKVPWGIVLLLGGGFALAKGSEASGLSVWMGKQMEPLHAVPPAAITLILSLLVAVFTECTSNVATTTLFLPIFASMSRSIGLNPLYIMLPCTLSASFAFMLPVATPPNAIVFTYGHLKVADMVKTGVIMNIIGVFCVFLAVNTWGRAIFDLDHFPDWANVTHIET

mouse NaCT = target: T2, mouse NaCT (Mus musculus, UniProt Q67BT3); test: Transport via mouse NaCT expressed in HRPE cells; type: cell-based
T2 sequence (Q67BT3 1-572): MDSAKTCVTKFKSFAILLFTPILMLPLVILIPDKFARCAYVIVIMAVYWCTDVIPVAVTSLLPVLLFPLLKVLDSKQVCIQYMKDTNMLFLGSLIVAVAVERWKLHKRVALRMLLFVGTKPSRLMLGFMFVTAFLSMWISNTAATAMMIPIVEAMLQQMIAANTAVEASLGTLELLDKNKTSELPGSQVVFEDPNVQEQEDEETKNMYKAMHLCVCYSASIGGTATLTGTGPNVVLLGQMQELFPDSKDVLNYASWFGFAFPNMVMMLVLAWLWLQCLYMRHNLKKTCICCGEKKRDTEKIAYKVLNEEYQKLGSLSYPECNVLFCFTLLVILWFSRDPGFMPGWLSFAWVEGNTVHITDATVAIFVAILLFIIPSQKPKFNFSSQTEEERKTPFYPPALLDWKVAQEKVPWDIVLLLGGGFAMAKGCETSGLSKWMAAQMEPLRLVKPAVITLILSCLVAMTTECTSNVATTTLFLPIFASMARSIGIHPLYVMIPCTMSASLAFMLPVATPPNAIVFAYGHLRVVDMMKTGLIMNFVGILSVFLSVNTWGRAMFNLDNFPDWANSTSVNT

rat NaCT = target: T3, rat NaCT (Rattus norvegicus, UniProt Q8CJ44); test: Uptake via rat NaCT expressed in HRPE cells; type: cell-based; details: for Citrate Uptake, cDNA / Citrate Uptake, cDNA-specific: pH 7.5
T3 sequence (Q8CJ44 1-572): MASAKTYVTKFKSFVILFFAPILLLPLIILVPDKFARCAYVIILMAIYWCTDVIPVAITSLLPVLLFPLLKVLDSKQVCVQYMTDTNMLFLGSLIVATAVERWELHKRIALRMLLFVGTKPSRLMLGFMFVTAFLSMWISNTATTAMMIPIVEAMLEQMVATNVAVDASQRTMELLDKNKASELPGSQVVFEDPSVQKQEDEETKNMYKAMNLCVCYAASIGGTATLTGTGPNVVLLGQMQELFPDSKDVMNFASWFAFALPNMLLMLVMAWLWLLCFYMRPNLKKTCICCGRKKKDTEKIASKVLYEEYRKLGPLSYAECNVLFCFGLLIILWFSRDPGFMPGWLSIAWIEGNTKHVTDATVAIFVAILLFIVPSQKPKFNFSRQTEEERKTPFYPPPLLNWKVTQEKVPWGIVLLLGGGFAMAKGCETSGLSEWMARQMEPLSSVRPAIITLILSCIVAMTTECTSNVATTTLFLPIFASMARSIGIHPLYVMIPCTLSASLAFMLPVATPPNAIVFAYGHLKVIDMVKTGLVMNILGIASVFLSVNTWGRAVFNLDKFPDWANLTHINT

[1] = [3H]succinate 40 nM, inhibitor 2.5 mM
[2] = [3H]succinate 40 nM, inhibitor 2.5 mM, NaCl buffer pH 7.5
[3] = citrate 35 μM, drIndy cDNA-transfected HRPE cells, indicated salt
[4] = [14C]citrate 7 μM, indicated salt
[5] = [14C]citrate 7 μM, rat NaCT cDNA-transfected HRPE, indicated salt
[6] = relative to NaCl, [14C]citrate 7 μM

Sequence of drIndy (Q9VVT2 19-590): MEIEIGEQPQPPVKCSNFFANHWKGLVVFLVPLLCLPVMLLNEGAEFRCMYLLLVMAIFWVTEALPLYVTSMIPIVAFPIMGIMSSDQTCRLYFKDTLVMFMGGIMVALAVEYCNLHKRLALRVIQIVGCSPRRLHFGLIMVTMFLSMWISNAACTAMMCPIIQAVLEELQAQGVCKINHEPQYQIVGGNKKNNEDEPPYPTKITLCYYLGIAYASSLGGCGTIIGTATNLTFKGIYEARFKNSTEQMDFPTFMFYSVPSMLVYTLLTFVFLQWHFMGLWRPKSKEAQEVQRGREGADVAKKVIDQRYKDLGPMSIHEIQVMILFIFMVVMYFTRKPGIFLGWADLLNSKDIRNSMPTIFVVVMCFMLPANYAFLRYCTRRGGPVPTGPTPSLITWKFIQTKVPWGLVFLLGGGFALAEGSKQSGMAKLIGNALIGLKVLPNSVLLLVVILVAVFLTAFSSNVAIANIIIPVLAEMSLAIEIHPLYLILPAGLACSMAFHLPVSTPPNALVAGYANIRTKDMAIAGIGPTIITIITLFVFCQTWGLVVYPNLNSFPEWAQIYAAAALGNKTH

O=C(O)CCC(=O)C(=O)O [2-Oxoglutarate]
% Control of cDNA-specific [^3H]succinate uptake (drIndy): 5% | cDNA-specific [^3H] succinate uptake (drIndy; pH 7.5): 3.0 ± 1.0 fmol/106 cells per min | Competition with [^14C]citrate for ceNaCT-mediated uptake (ceNaCT): inhibited markedly

COC(=O)CCC(=O)OC [Dimethylsuccinate]
% Control of cDNA-specific [^3H]succinate uptake (drIndy; [1]): 13% | cDNA-specific [^3H] succinate uptake (drIndy; [2]): 14.1 ± 0.8 fmol/106 cells per min

O=C(O)/C=C/C(=O)O [Fumarate]
% Control of cDNA-specific [^3H]succinate uptake (drIndy): 6% | cDNA-specific [^3H] succinate uptake (drIndy; pH 7.5): 4.8 ± 0.3 fmol/106 cells per min | [^14C]-Citrate Uptake (cDNA-specific) (human NaCT): 43.7 ± 5.0 pmol/10^6 cells/min | [^14C]-Citrate Uptake, % (human NaCT): 92% | IC50 (human NaCT; read-out: IC50 for inhibition of human NaCT-mediated [^14C]-citrate uptake): 12.6 ± 5 mM | [^3H]-Succinate transport (NaCT-specific) (mouse NaCT): 0.007 ± 0.002 pmol/10^6 cells/min | [^3H]-Succinate transport, % (mouse NaCT): 5% | [^14C]-Citrate transport (NaCT-specific) (mouse NaCT): 1.6 ± 0.4 pmol/10^6 cells/min | [^14C]-Citrate transport, % (mouse NaCT): 4% | Competition with [^14C]citrate for ceNaCT-mediated uptake (ceNaCT): inhibited markedly | [^14C]Citrate uptake (cDNA-specific) (rat NaCT): 17.7 ± 1.4 Pmol/10^6 cells/min | [^14C]Citrate uptake, % (rat NaCT): 16%

[Cl-].[K+] [KCl]
Citrate uptake, drIndy (drIndy): 33.8 ± 2.7 pmol/10^6 cells per min | Fold Increase of citrate uptake (drIndy vs vector) (drIndy): 19.9 fold | Succinate uptake, drIndy (drIndy; pH 7.5): 111.0 ± 8.5 fmol/10^6 cells per min | Citrate Uptake, cDNA-specific, % (human NaCT): 0% | Citrate Uptake, cDNA (human NaCT): 1.1 ± 0.1 pmol/10^6 cells/min | Citrate Uptake, cDNA-specific (human NaCT): −0.1 ± 0.1^ pmol/10^6 cells/min | Citrate Uptake, cDNA-specific, % (rat NaCT): 0% | Citrate Uptake, cDNA (rat NaCT): 0.6 ± 0.1 pmol/10^6 cells/min | Citrate Uptake, cDNA-specific (rat NaCT): 0.1 ± 0.1 pmol/10^6 cells/min

[Cl-].[Li+] [LiCl]
Citrate uptake, drIndy (drIndy; [3]): 52.1 ± 2.2 pmol/10^6 cells per min | Fold Increase of citrate uptake (drIndy vs vector) (drIndy; citrate 35 μM, indicated salt): 27.4 fold | Citrate Uptake, cDNA (human NaCT; [14C]-citrate 20 μM, human NaCT cDNA-transfected HRPE, indicated salt): 2.0 ± 0.1 pmol/10^6 cells/min | Citrate Uptake, cDNA-specific (human NaCT; [14C]-citrate 20 μM, indicated salt): 0.7 ± 0.1 pmol/10^6 cells/min | Citrate Uptake, cDNA-specific, % (human NaCT; relative to NaCl): 1% | Citrate Uptake, cDNA-specific (rat NaCT; [4]): 1.1 ± 0.1 pmol/10^6 cells/min | Citrate Uptake, cDNA (rat NaCT; [5]): 1.6 ± 0.1 pmol/10^6 cells/min | Citrate Uptake, cDNA-specific, % (rat NaCT; [6]): 3%

O=C(O)CC(O)C(=O)O (centres unmarked) [Malate, malate]
% Control of cDNA-specific [^3H]succinate uptake (drIndy; [1]): 8% | cDNA-specific [^3H] succinate uptake (drIndy; [2]): 6.8 ± 2.7 fmol/106 cells per min | IC50 (human NaCT): 3.12 ± 1.34 mM | [^14C]-Citrate Uptake (cDNA-specific) (human NaCT; [14C]-citrate 20 μM, unlabeled compound 2.5 mM): 29.5 ± 1.9 pmol/10^6 cells/min | [^14C]-Citrate Uptake, % (human NaCT; [14C]-citrate 20 μM, unlabeled compound 2.5 mM, none = 100): 62% | [^3H]-Succinate transport (NaCT-specific) (mouse NaCT; [3H]-succinate 0.1 μM, substrate analog 2 mM): 0.004 ± 0.001 pmol/10^6 cells/min | [^3H]-Succinate transport, % (mouse NaCT; [3H]-succinate 0.1 μM, substrate analog 2 mM, control = 100): 3% | [^14C]-Citrate transport (NaCT-specific) (mouse NaCT; [14C]-citrate 10 μM, substrate analog 2 mM): 0.2 ± 0.1 pmol/10^6 cells/min | [^14C]-Citrate transport, % (mouse NaCT; [14C]-citrate 10 μM, substrate analog 2 mM, control = 100): 1% | Competition with [^14C]citrate for ceNaCT-mediated uptake (ceNaCT; competitor 2.5 mM, [14C]citrate 15 μM): inhibited markedly | [^14C]Citrate uptake (cDNA-specific) (rat NaCT; [14C]citrate 14 μM, unlabeled compound 2.5 mM): 7.8 ± 0.1 Pmol/10^6 cells/min | [^14C]Citrate uptake, % (rat NaCT; [14C]citrate 14 μM, unlabeled compound 2.5 mM, none = 100): 7%

O=C(O)CC(=O)O [Malonate, malonate]
% Control of cDNA-specific [^3H]succinate uptake (drIndy): 71% | cDNA-specific [^3H] succinate uptake (drIndy; pH 7.5): 98.8 ± 7.1 fmol/106 cells per min | [^14C]-Citrate Uptake (cDNA-specific) (human NaCT): 57.3 ± 3.2 pmol/10^6 cells/min | [^14C]-Citrate Uptake, % (human NaCT): 120% | Competition with [^14C]citrate for ceNaCT-mediated uptake (ceNaCT): failed to inhibit the uptake of citrate

OC[C@@H](O)[C@@H](O)[C@H](O)[C@H](O)CO [Mannitol]
Citrate uptake, drIndy (drIndy; [3]): 26.3 ± 0.3 pmol/10^6 cells per min | Fold Increase of citrate uptake (drIndy vs vector) (drIndy; citrate 35 μM, indicated salt): 15.5 fold | Citrate Uptake, cDNA-specific (rat NaCT; [4]): 0.1 ± 0.1 pmol/10^6 cells/min | Citrate Uptake, cDNA (rat NaCT; [5]): 0.7 ± 0.1 pmol/10^6 cells/min | Citrate Uptake, cDNA-specific, % (rat NaCT; [6]): 0%
